Test results reported in patent US20100330136A1, “USE OF CATIONIC SURFACTANTS FOR THE PROTECTION AGANST TOOTH EROSION” (priority 2008, published 2010).

Key:
[1] = Tooth coating effect: surface energy from contact angles of sessile drops (Glantz method); format: physicochemical; details: for Surface Energy: enamel without LAE ca 23 dyn/cm
Excerpt: The tooth coating effect by LAE was validated by the methods described by Glantz PO (1981. “Adhesion in the oral cavity” In Fundamentals and application of surface interactions in the oral cavity (ed. S. A. Leach), pp 49-64. Information Retrieval Ltd. London). The method measures contact angles of sessile drops from liquids with a range of polarities to determine the polar component of the surface energy (gamma p) and dispersive component on teeth coated with LAE. Without LAE the surface energy was 23 dyn/cm. […] In the presence of LAE the surface energy was reduced to a lowest level of 11.5 dyn/cm. This coating provides a shielding effect on teeth against erosion caused by acids from food and beverages.
The surface energy of enamel is ca 23 dyn/cm. This surface energy is reduced by the presence of LAE to the following values: […]

A. naeslundii = assay: Antimicrobial activity on the biofilm (Zurich Biofilm Model); format: cell-based, Actinomyces naeslundii; details: 0.5% LAE; 6 exposures of 1 minute in two days, evaluated 16 h after last exposure; control 8.3
Procedure: (§1) The biofilm model is a reliable tool to predict the in vivo efficacy of antimicrobials, and de- and remineralization of enamel exposed to biofilms in vitro. The experiments were performed with the Zurich Biofilm Model. Biofilms are formed either on hydroxyapatite (HA) or bovine enamel disks that have preconditioned in pooled, unstimulated saliva. Biofilms are formed in 24-well cell culture dishes incubated anaerobically at 37° C. The detailed description to the preparation of this model was published by Guggenheim et al., 2001, J. Dent. Res. 80 (1) 363-370. The microbial composition of this biofilm was constituted by five bacterial species and a yeast. More specifically, they are as follows: Streptococcus oralis, Streptococcus sobrinus, Actinomyces naeslundii, Veillonella dispar and Fusobacterium nucleatum and the yeast studied was Candida albicans. The bacteria chosen for incorporation into this biofilm model were five species encountered in supragingival plaque.
(§2) Most of the biofilm models are based on a continuous flow culture system which means that biofilms are subjected to shear or detachment forces. In contrast, the biofilm model used in these experiments was based on a batch culture system that was subjected only intermittently to such forces in the course of dip-washing or gentle swirling. […]
(§3) The results of the following table were expressed as log10 of CFU: […]

V. dispar = assay: as above; format: cell-based, Veillonella dispar; details: 0.5% LAE; 6 exposures of 1 minute in two days, evaluated 16 h after last exposure; control 8.1
Procedure: as §1, §2, §3

F. nucleatum = assay: as above; format: cell-based, Fusobacterium nucleatum; details: 0.5% LAE; 6 exposures of 1 minute in two days, evaluated 16 h after last exposure; control 5.1
Procedure: as §1, §2, §3

S. sobrinus = assay: as above; format: cell-based, Streptococcus sobrinus; details: 0.5% LAE; 6 exposures of 1 minute in two days, evaluated 16 h after last exposure; control 8.6
Procedure: as §1, §2, §3

S. oralis = assay: as above; format: cell-based, Streptococcus oralis; details: 0.5% LAE; 6 exposures of 1 minute in two days, evaluated 16 h after last exposure; control 9.0
Procedure: as §1, §2, §3

C. albicans = assay: as above; format: cell-based, Candida albicans; details: 0.5% LAE; 6 exposures of 1 minute in two days, evaluated 16 h after last exposure; control 5.1
Procedure: as §1, §2, §3

[2] = system: microorganisms in biofilm (five bacterial species and a yeast); assay: Re-growth of biofilms after LAE exposure (Zurich Biofilm Model); format: cell-based; details: 1% LAE
Procedure: as §1
Most of the biofilm models are based on a continuous flow culture system which means that biofilms are subjected to shear or detachment forces. In contrast, the biofilm model used in these experiments was based on a batch culture system that was subjected only intermittently to such forces in the course of dip-washing or gentle swirling. Thus, this biofilm model allows for controlled substance exposure times resembling those encountered during mouth rinsing.
The biofilms were exposed to LAE only 6 times during 1 minute in two subsequent days. The evaluation of the LAE effects was studied 16 h after the last exposure.
This experiment compared the re-growth of microorganisms in a control biofilm against a biofilm exposed to LAE. The content of microorganisms in each biofilm was studied along the time. For each point of analysis the growth of microorganisms was studied before and after a dip in a saline solution for control biofilms and in LAE for the other biofilms after each feeding.
The results are expressed as log10 of CFU: […]

[3] = Effect of LAE on acids generated from sugar rinses: pH on tooth plaque interfaces; format: in vivo, Humans; details: for intraoral pH after 10% sucrose rinse: 0.16% LAE, humans
Excerpt: It has been established, that beverages and food containing sugars promote tooth erosion. The American Dental Association (ADA) food and nutrition programs recommend a procedure for evaluating pH in the mouth after ingestion of food and beverages. This is summarized in the FDA guidelines published in Federal Register 43433, vol 61, No. 165, 1996. The procedure involved measuring pH on tooth plaque interfaces after giving the subjects (6 subjects per group) 10% sucrose rinse in the presence or absence of treatment with 0.16% LAE versus placebo solution containing flavor, sweetener, plasticizer (components of chewing gum) to assess their acid neutralizing effects. […] Whereas rinsing with LAE maintains a pH of 5.4±0.3 which is above the danger zone maintained for 3 and 7 days of continuous monitoring. This validates that LAE not only coats the surface of teeth but maintains a healthy pH around teeth to prevent erosion.
Another effect produced by LAE is the pH neutralization. Upon hydrolysis LAE forms arginine which is a natural pH neutralizer in human saliva. The following table reports the intraoral pH with LAE versus a placebo from 0 to 7 days after 10% sucrose rinse: […]

[4] = system: Arthrobacter oxydans ATCC 8010; details: Gram + bacteria; cited from earlier work
[5] = system: Bacillus cereus var mycoide ATCC 11778; details: Gram + bacteria; cited from earlier work
[6] = system: Bacillus subtilis ATCC 6633; details: Gram + bacteria; cited from earlier work
[7] = system: Clostridium perfringens ATCC 77454; details: Gram + bacteria; cited from earlier work
[8] = system: Listeria monocytogenes ATCC 7644; details: Gram + bacteria; cited from earlier work
[9] = system: Staphylococcus aureus ATCC 6538; details: Gram + bacteria; cited from earlier work
[10] = system: Micrococcus luteus ATCC 9631; details: Gram + bacteria; cited from earlier work
[11] = system: Lactobacillus delbrueckii ssp lactis CECT 372; details: Gram + bacteria; cited from earlier work
[12] = system: Leuconostoc mesenteroides CETC 912; details: Gram + bacteria; cited from earlier work
[13] = system: Streptococcus mutans ATCC 25175; details: Gram + bacteria; cited from earlier work
[14] = system: Alcaligenes faecalis ATCC 8750; details: Gram − bacteria; cited from earlier work
[15] = system: Bordetella bronchiseptica ATCC 4617; details: Gram − bacteria; cited from earlier work
[16] = system: Citrobacter freundii ATCC 22636; details: Gram − bacteria; cited from earlier work
[17] = system: Enterobacter aerogenes CECT 689; details: Gram − bacteria; cited from earlier work
[18] = system: Escherichia coli ATCC 8739; details: Gram − bacteria; cited from earlier work
Escherichia coli 0157H7 = details: Gram − bacteria; cited from earlier work
[19] = system: Klebsiella pneumoniae var pneumoniae CECT 178; details: Gram − bacteria; cited from earlier work
[20] = system: Proteus mirabilis CECT 170; details: Gram − bacteria; cited from earlier work
[21] = system: Pseudomonas aeruginosa ATCC 9027; details: Gram − bacteria; cited from earlier work
[22] = system: Salmonella typhimurium ATCC16028; details: Gram − bacteria; cited from earlier work
[23] = system: Serratia marcenses CECT 274; details: Gram − bacteria; cited from earlier work
[24] = system: Mycobacterium phlei ATCC 41423; details: listed under Gram − bacteria; cited from earlier work
[25] = system: Aspergillus niger ATCC14604; details: Fungi; cited from earlier work
[26] = system: Aureobasidium pullulans ATCC 9348; details: Fungi; cited from earlier work
[27] = system: Gliocadium virens ATCC 4645; details: Fungi; cited from earlier work
[28] = system: Chaetonium globosum ATCC 6205; details: Fungi; cited from earlier work
[29] = system: Penicillium chrysogenum CECT 2802; details: Fungi; cited from earlier work
[30] = system: Penicillium funiculosum CECT 2914; details: Fungi; cited from earlier work
[31] = system: Candida albicans ATCC 10231; details: Yeast; cited from earlier work
[32] = system: Rhodotorula rubra CECT 1158; details: Yeast; cited from earlier work
[33] = system: Saccharomyces cerevisiae ATCC 9763; details: Yeast; cited from earlier work
[34] = rats; cited from earlier work
[35] = cited from earlier work

CCCCCCCCCCCC(=O)N[C@@H](CCCN=C(N)N)C(=O)OCC.Cl [LAE, ethyl ester of the lauramide of the arginine monohydrochloride]
Surface Energy ([1]; [LAE] 0.00001 %): 21.5 dyn/cm | Surface Energy ([1]; [LAE] 0.001 %): 16.5 dyn/cm | Surface Energy ([1]; [LAE] 0.01 %): 11.5 dyn/cm | Surface Energy ([1]; [LAE] 0.1 %): 14 dyn/cm | Surface Energy ([1]; [LAE] 1 %): 12 dyn/cm | Surface energy, lowest level in the presence of LAE ([1]; lowest level, without LAE 23 dyn/cm): 11.5 dyn/cm | log10 of CFU in biofilm (A. naeslundii): 2.5 log10 of CFU | log10 of CFU in biofilm (V. dispar): 5.0 log10 of CFU | log10 of CFU in biofilm (F. nucleatum): 2.1 log10 of CFU | log10 of CFU in biofilm (S. sobrinus): 6.1 log10 of CFU | log10 of CFU in biofilm (S. oralis): 6.1 log10 of CFU | log10 of CFU in biofilm (C. albicans): 2.1 log10 of CFU | log10 of CFU, biofilm re-growth ([2]; 16.5 h, After 1 dip, control 7.2): 3.5 log10 of CFU | log10 of CFU, biofilm re-growth ([2]; 16.5 h, Before 1 dip, control 7.1): 7.1 log10 of CFU | log10 of CFU, biofilm re-growth ([2]; 24.5 h, After 3 dip, control 7.4): 2.2 log10 of CFU | log10 of CFU, biofilm re-growth ([2]; 24.5 h, Before 3 dip, control 8.1): 1.4 log10 of CFU | log10 of CFU, biofilm re-growth ([2]; 40.5 h, After 4 dip, control 8.1): 1.2 log10 of CFU | log10 of CFU, biofilm re-growth ([2]; 40.5 h, Before 4 dip, control 8.1): 5.9 log10 of CFU | log10 of CFU, biofilm re-growth ([2]; 48.5 h, After 6 dip, control 8.4): 1.2 log10 of CFU | log10 of CFU, biofilm re-growth ([2]; 48.5 h, Before 6 dip, control 8.5): 3.2 log10 of CFU | log10 of CFU, biofilm re-growth ([2]; 64.5 h, Endpoint, control 9.0): 4.3 log10 of CFU | intraoral pH after 10% sucrose rinse ([3]; Day 0, placebo 6): 6 | intraoral pH after 10% sucrose rinse ([3]; Day 3, placebo 4.3): 5.3 | intraoral pH after 10% sucrose rinse ([3]; Day 7, placebo 4.3): 5.2 | pH of the tooth interface after 10% sucrose rinse ([3]; maintained for 3 and 7 days of continuous monitoring, 0.16% LAE rinse, placebo 4.3±0.2, danger zone below pH 5): 5.4±0.3 | M.I.C. [4]: 64 ppm | M.I.C. [5]: 32 ppm | M.I.C. [6]: 16 ppm | M.I.C. [7]: 16 ppm | M.I.C. [8]: 10 ppm | M.I.C. [9]: 32 ppm | M.I.C. [10]: 128 ppm | M.I.C. [11]: 16 ppm | M.I.C. [12]: 32 ppm | M.I.C. [13]: 64 ppm | M.I.C. [14]: 64 ppm | M.I.C. [15]: 128 ppm | M.I.C. [16]: 64 ppm | M.I.C. [17]: 32 ppm | M.I.C. [18]: 32 ppm | M.I.C. (Escherichia coli 0157H7): 20 ppm | M.I.C. [19]: 32 ppm | M.I.C. [20]: 32 ppm | M.I.C. [21]: 64 ppm | M.I.C. [22]: 32 ppm | M.I.C. [23]: 32 ppm | M.I.C. [24]: 2 ppm | M.I.C. [25]: 32 ppm | M.I.C. [26]: 16 ppm | M.I.C. [27]: 32 ppm | M.I.C. [28]: 16 ppm | M.I.C. [29]: 128 ppm | M.I.C. [30]: 16 ppm | M.I.C. [31]: 16 ppm | M.I.C. [32]: 16 ppm | M.I.C. [33]: 32 ppm | absorption and metabolism [34]: fast absorption and metabolisation into naturally-occurring amino acids and the fatty acid lauric acid | tolerance and toxicity in practical use ([35]; human beings): well tolerated and to display a very low toxicity to human beings | toxicity ([35]; toxicological studies, animals and humans): completely harmless to animals and humans
